Columns and labels:
[1] = system: 8 human breast cancer cell lines; experiment: human tumor cell panel assay in vitro, breast panel; assay type: cell-based; design: key to Most Sensitive Cell Lines in Human Tumor Cell Panel Assay: Breast: Most sensitive cell panes are marked with ✓; conditions: for Most Sensitive Cell Lines in Human Tumor Cell Panel Assay: Breast: 8 cell lines, only MCF-7 and T-47D express estrogen and progesterone receptors
Description: (§1) The tubulin activities, breast cancer cell line activities, and the cell panels most sensitive to selected analogs are shown in Tables 3 and 4.

[2] = target: T1, rat uterine cytosolic estrogen receptor (Rattus norvegicus, UniProt P06211); experiment: Relative Binding Affinity to estrogen receptor; conditions: at 0°; 3H-Estradiol=100
T1 construct: from tissue; host or cells: rat uterine cytosol (per the result head)
T1 sequence (P06211 1-600): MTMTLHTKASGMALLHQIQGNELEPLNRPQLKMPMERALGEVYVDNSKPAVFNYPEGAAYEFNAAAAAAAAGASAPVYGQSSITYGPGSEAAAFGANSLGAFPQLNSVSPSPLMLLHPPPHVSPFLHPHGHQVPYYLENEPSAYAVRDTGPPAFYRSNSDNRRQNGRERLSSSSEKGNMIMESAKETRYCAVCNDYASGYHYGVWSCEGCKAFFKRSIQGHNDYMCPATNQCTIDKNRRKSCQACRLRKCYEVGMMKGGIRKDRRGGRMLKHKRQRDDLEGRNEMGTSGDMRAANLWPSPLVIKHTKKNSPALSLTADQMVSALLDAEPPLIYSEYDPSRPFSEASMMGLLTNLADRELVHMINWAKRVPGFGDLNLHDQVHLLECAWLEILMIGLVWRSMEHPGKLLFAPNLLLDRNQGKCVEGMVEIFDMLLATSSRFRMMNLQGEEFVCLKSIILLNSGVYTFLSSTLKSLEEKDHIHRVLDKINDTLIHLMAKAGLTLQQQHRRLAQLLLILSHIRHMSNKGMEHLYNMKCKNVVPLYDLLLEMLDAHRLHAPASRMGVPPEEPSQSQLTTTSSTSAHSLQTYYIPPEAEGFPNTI
Description: as §1

[3] = system: Melanoma cell lines; experiment: Human Tumor Cell Panel Assay in vitro, melanoma panel; assay type: cell-based; design: key: Most sensitive cell panes are marked with ✓
Description: as §1

[4] = system: Renal cell lines; experiment: Human Tumor Cell Panel Assay in vitro, renal panel; assay type: cell-based; design: key: Most sensitive cell panes are marked with ✓
Description: as §1

[5] = system: corneal neovascularization; experiment: Mouse Corneal Micropocket Assay; assay type: in vivo, mice; conditions: 150 mg/kg, daily oral, 5 days
Description: Five- to 7-week-old SCID female mice were obtained from Massachusetts General Hospital (Boston, Mass.), Immunocompetent 7-9-week-old female C57BL/6 mice were obtained from ARCH Technical Services, Children's Hospital (Boston, Mass.). All animal studies were conducted according to protocols approved by the Animal Ethics Committee of Children's Hospital. Animals were anesthetized in a methoxyflurane (Pittman-Moore, Mundelein, Ill.) chamber prior to all procedures and were observed until fully recovered. Animals were sacrificed by a lethal dose of methoxyflurane.
Mouse Corneal Micropocket Assay To study the effect of microtubule inhibitors on angiogenesis in vivo, a model of angiogenesis in the mouse cornea was used in […] mice as described previously (Kenyon, B. B., Voest, E. E., Chen, C. C., Folkman, J., and D'Amato, R. J. A model of angiogenesis in the mouse cornea. Invest. Ophthalmol. & Visual Sci., 76: 1625-1632, 1996). In brief, after animals were anesthetized, corneal micropockets were created in both eyes with a modified von Graefe cataract knife. Into each pocket, a 0.4 mm ×0.4 mm×0.2 mm sucrose aluminum sulfate (Bukh Meditee, Copenhagen, Denmark) pellet coated with hydron polymer type NCC (IHN Sciences, New Brunswick, N.J.) containing 80 ng of bFGF or 160 ng of human recombinant […] (gift from Reprogenesis, Cambridge, Mass.) was implanted 1.0-1.2 mm from the limbal vessels (bFGF experiments) or 0.5-0.7 mm from the limbus (VEGF experiments). Erythromycin ointment (E. Fougera, Melville, N.Y.) was applied to each operated eye. The sucralfate acts to stabilize the growth factor and to slow its release from the hydron. Before testing each drug in this assay, we found the maximal dose that could be administered daily for 5 consecutive days without producing signs of toxicity (i.e., no hair loss, diarrhea, infection, lethargy, or weight loss). The treated groups received daily oral administration for 5 consecutive days of the stated dosage of 2-ME or a derivative thereof suspended in 0.5 g/100 ml of carboxymethylcellulose.
Treatment was started on the day of pellet implantation. […] For this purpose, the eyes of the mice were examined by slit-lamp biomicroscopy. Area of corneal neovascularization was calculated using a modified formula for a half-ellipse: Area (mm^2)=[π×clock hours×length (mm)×0.2 mm]. This formula provides the most accurate approximation of the area of neovascularization that grows toward the pellet. (Kenyon, B. B., Voest, E. E., Chen, C. C., Folkman, J., and D'Amato, R. J. A model of angiogenesis in the mouse cornea. Invest. Ophthalmol. & Visual Sci., 76: 1625-1632, 1996).

[6] = system: tubulin; experiment: tubulin activities of 2-ME analogs (Table 3); assay type: biochemical
[7] = system: CNS cell lines; experiment: Human Tumor Cell Panel Assay in vitro, CNS panel; assay type: cell-based; design: key: Most sensitive cell panes are marked with ✓
Description: as §1

[8] = system: Ovarian cell lines (especially OVCAR-3); experiment: Human Tumor Cell Panel Assay in vitro, ovarian panel; assay type: cell-based; design: key: Most sensitive cell panes are marked with ✓
Description: as §1

[9] = system: MDA-MB-435 estrogen receptor-negative human breast carcinoma cells; experiment: In Vivo Tumor Growth Inhibition; design: species or system SCID mice
Description: To determine the antitumor activity of 2-ME and derivatives, SCID mice were s.c. inoculated with 10^6 MDA-MB-435 estrogen receptor-negative human breast carcinoma cells. Treatment was initiated on day 12 when tumor volumes reached 75-100 mm3 in volume. Drugs were suspended in 0.5 g/100 ml of carboxymethylcellulose with sterile glass beads, vortexed for 5 minutes, and administered p.o. in a volume of 0.1 ml. Control mice received 0.1 ml of carboxymethylcellulose p.o. Serial caliper measurements of perpendicular diameters were used to calculate tumor volume using the following: (shortest diameter)^2×(longest diameter)×0.52. T/C was calculated as the volume of treated tumors over the volume of control tumors. A smaller number indicates a greater inhibition of tumor growth.

[10] = system: tubulin; experiment: inhibition of tubulin polymerization in vitro (turbidity at 350 nm); assay type: biochemical; conditions: read-out: IC50 (concentration required to inhibit tubulin polymerization by 50%); mean ± S.D.; method of Example 1
Description: Anti-mitotic activity can be evaluated by testing the ability of an estradiol derivative to inhibit tubulin polymerization and microtubule assembly in vitro. Microtubule assembly is followed in a Gilford recording spectrophotometer (model 250 or 2400S) equipped with electronic temperature controllers. A reaction mixture (all concentrations refer to a final reaction volume of […]) contains 1.0 M monosodium glutamate (ph 6.6), 1. omg/ml (10 μM) tubulin, 1.0 mM MgCl2, 4% (v/v) dimethylsulfoxide and 20-75μM of a composition to be tested. The 0.24 ml reaction mixtures are incubated for 15 min. at 37° C. and then chilled on ice. After addition of 10p1 2.5mM GTP, the reaction mixture is transferred to a cuvette at 0° C., and a baseline established. At time zero, the temperature controller of the spectrophotometer is set at 37° C. Microtubule assembly is evaluated by increased turbity at 350 nm.
A. Each reaction mixture (all concentrations refer to the final reaction volume of 0.25 ml) contained 1.0 M monosodium glutamate (pH 6.6), 1.0 mg/ml (10 μM) tubulin, 1.0 mM MgCl2, 4% (v/v) dimethylsulfoxide, and either 0 (curve 1), 20μM (curve 2), 40 μM (curve 3), or 75 μM (curve 4) 2-methoxyestradiol. The 0.24 ml reaction mixtures were incubated for 15 min. at 37° C and chilled on ice. After addition of 10 μl of 2.5 mM GTP the reaction mixtures were transferred to cuvettes held at 0° C., and baselines were established. At time zero the temperature controller was set at 37° C. At the times indicated by the vertical dashed lines the temperature controller was set at the indicated temperatures.
B. Each reaction mixture contained 0.8 M monosodium glutamate (pH 6.6), 1.2 mg/ml (12 μM) tubulin, 4% (v/v) dimethylsulfoxide, and either 0 (curve 1), 1.0 FM (curve 2), 2.0 ,M (curve 3), 3.0 μM (curve 4), or 4.0 μM (curve 5) 2-methoxyestradiol. The 0.24 ml reaction mixtures were incubated for 15 min. at 26° C. and chilled on ice. After addition of 10μl of 10 mM GTP the reaction mixtures were transferred to cuvettes held at 0° C., and baselines were established. At time zero the temperature controller was set at 26° C. At the time indicated by vertical dashed line the temperature controller was set at 0° C.
The method is given in Example 1.
S.D., standard deviation.

[11] = system: tubulin; experiment: inhibition of [3H]colchicine binding to tubulin; conditions: 100 μM inhibitor, 1.0 μM tubulin, 2 μM [3H]colchicine, 10 min at 37° C.; ± S.D.
Description: Incubation was for 10 min. at 37° C.
Incubation was for 10 mi. at 37° C. Average values obtained in three independent experiments are presented in the table, except for 2-methoxyestrone, which was only examined twice. S.D., standard deviation.

SMILES | Most Sensitive Cell Lines in Human Tumor Cell Panel Assay: Breast [1] | RBA, Relative Binding Affinity to rat uterine cytosolic estrogen receptor [2] | Most Sensitive Cell Lines in Human Tumor Cell Panel Assay: Melanoma [3] | Most Sensitive Cell Lines in Human Tumor Cell Panel Assay: Renal [4] | inhibition in corneal pocket assay [5] [%] | IC50 [6] [nM] | Most Sensitive Cell Lines in Human Tumor Cell Panel Assay: CNS [7] | Most Sensitive Cell Lines in Human Tumor Cell Panel Assay: Ovarian [8] | IC50 [10] [nM] | Percentage Inhibition of colchicine binding to tubulin [11] [%] | other results
CCOc1cc2c(cc1O)C(=NOC)CC1C2CCC2(C)C(O)CCC12 (stereo not shown) [NSC 683125] | ✓ | <0.001 | ✓ | ✓ | 23 |  |  |  |  |  | 
C[C@]12CC[C@@H]3c4cc(OCC(F)(F)F)c(O)cc4/C(=N/O)C[C@H]3[C@@H]1CC[C@@H]2O [NSC 681683] | ✓ | <0.0074 | ✓ |  | 22 | 500 | ✓ | ✓ |  |  | tumor growth inhibition, comparison in words (FIG. 4) ([9]; FIG. 4): performed approximately as well as the derivative 681684
C#CC1(O)CCC2C3CCc4cc(O)ccc4C3CCC21C (stereo not shown) [17-Ethynylestradiol, reference compound] |  |  |  |  |  |  |  |  | 10000 ± 2000 | 50 ± 7 | 
CCOc1cc2c(cc1O)C(=NO)CC1C2CCC2(C)C(O)CCC12 (stereo not shown) [NSC 680185] | ✓ | <0.001 | ✓ | ✓ |  |  | ✓ | ✓ |  |  | T/C (volume of treated tumors over volume of control tumors) ([9]; 150 mg/kg p.o., duration not stated): 0.9
COc1cc2c(cc1O)CCC1C2CCC2(C)C(=O)CCC12 (stereo not shown) [2-Methoxyestrone, reference compound] |  |  |  |  |  |  |  |  | 8800 ± 1000 | 57 ± 6 | 
CCNc1cc2c(cc1O)CCC1C2CCC2(C)C(O)CCC12 (stereo not shown) [NSC 673652] |  | 0.35 |  |  |  | ~2000 |  |  |  |  | IC50 ([1]; Homo sapiens, cell panel assay in vitro, two values per cell separated by /, read-out: Tumor Panel: Average log IC50(Molar) against 8 human breast cancer cell lines (converted)): 2000 nM; Tumor Panel: Average log IC50(Molar) against 8 human breast cancer cell lines ([1]; cell panel assay in vitro, two values per cell separated by /): −5.7/−5.7 log Molar

— patent US20020002294A1, “Estrogenic compounds as antiangiogenic agents” (priority 1997, published 2002)
